Measurements taken from US4939134A, “26-aminocholesterol and derivatives and analogs thereof in the regulation of cholesterol accumulation in body tissue” (New York University, priority 1988, dated 1990).
Entries after “also recorded” stand apart in the source; their conditions may differ.

Key:
HepG2 Cells = experiment: Total cell cholesterol in HepG2 hepatocytes; format: cell-based, human; conditions: 96 h, n = 3
Excerpt: HepG2 cells were obtained from Dr. Barbara Knowles of the Wistar Institute, Pennsylvania. The HepG2 stock monolayers were maintained under the same conditions as the fibroblast monolayers, in a medium comprising MEM supplemented with 10% heat-inactivated FBS, and 1% (v/v) each of penicillin-streptomycin solution, non-essential and essential amino acids, and L-glutamine.
For experiments using HepG2 cells, confluent stock monolayers were washed once with Dulbecco's PBS, dissociated with 0.05-0.02% trypsin-EDTA followed by treatment with deoxyribonuclease I (0.1%), and were seeded (3.0×10^6) under identical conditions. The experimental MEM contained 25% (v/v) D2 O, 9% (v/v) delipidated FBS, and 1% (v/v) each of heat-inactivated FBS, penicillin-streptomycin, essential and non-essential amino acids, L-glutamine and 20 mM HEPES.
(§1) The fibroblast and hepatoblastoma cells were cultured in media containing 25% D2 O and 1% FBS in order to determine de novo cholesterol synthesis under conditions that permit receptor mediated cholesterol transport, according to the method of Easterman & Javitt et al., J. Lipid Res., 26: 950-954 (1985). Dish cultures of each cell type were prepared, and 26-aminocholesterol, dissolved in N,N-dimethylformamide (DMF, 9 ul per dish, 0.3% v/v) was added to each culture. The cells were then grown to confluence (96 hours, day 5). […] Duplicate or triplicate dishes containing 9 ul of DMF, but without 26-aminocholesterol, were used as controls.
After 96 hours of incubation, medium was removed from the cell cultures, and the cells were washed with Dulbecco's PBS and were harvested with 0.05% trypsin - 0.02% EDTA. The protease was deactivated with an equivolume aliquot of soybean trypsin inhibitor, and the resulting cell suspension was centrifuged for 5 minutes at 500xg. An internal standard of 5B-cholestan-3B-ol was added to the pellets prior to extraction with an 8:4:3 chloroform:methanol:water Folch mixture, as described in Folch et al., J. Biol. Chem., 266: 497-509 (1957). An aliquot of the extract was blown to dryness under nitrogen and silylated with 2:1:1 MSTFA (a sylated reagent supplied by Pierce Co.): toluene:-pyridine. Free cholesterol was determined by gas-liquid chromatography (GLC) on a Perkin-Elmer capillary gas-liquid chromatography model 8320 fitted with a 20 m DE-1 methylsilicon glass column (Supelco). The remaining extract was dried and saponified with 2% ethanolic KOH at 80° C. for one hour. The […] was then re-extracted and total cholesterol was measured by GLC after silylation. Cholesterol ester was calculated as the difference between the total and free cholesterol determinations. Newly synthesized cholesterol was determined by GLC-MS isotope mass ratios, using a Hewlett-Packard GC-MS spectrometer model 5890 fitted with DB-1 methyl silicon 0.18 i.d. 20 m glass column (Supelco), according to the method of J. Lipid. Res., 26: 950-954, supra.
(§2) For purposes of comparison, ^125 I-LDL and cholesterol assays were also conducted in cultures prepared according to the above methods, but incubated with 26-hydroxycholesterol in one set of experiments and with the sterol 26-thiacholesterol in another set of experiments. These sterols were obtained according to known methods, similar to those described above for 26-aminocholesterol.

[1] = tested on: LDLR (+) Human Fibroblasts; experiment: Total 125I-LDL binding to human fibroblasts; format: cell-based; conditions: for 125I-LDL BINDING: 10 ug/ml 125I-LDL, 4 h, 37° C., n = 3, untreated 49.7; for LDL-binding (in words): human fibroblasts / tissue cells
Description: Normal LDLR(+) human fibroblasts (GM3440) were obtained from the National Institute of General Medical Sciences Human Genetic Cell Repository. Stock fibroblast monolayers were maintained in T-75 disposable Nunc flasks, in a medium comprising 10 ml of MEM (Eagle's Minimum Essential Medium with Earl's salts, pH 7.4) supplemented with 10% (v/v) fetal bovine serum (FBS), 2% (v/v) non-essential and essential amino acids, 1% (v/v) MEM vitamins, 1% L-glutamine (292 ug/ml), 1% penicillin (100 U/ml)-streptomycin (100 ug/ml). The fibroblast stock was maintained at 37° C. in a humidified atmosphere of 5% CO2 and 95% air.
For experiments using fibroblasts, confluent stock cultures (5-18 passages) were washed once with Dulbecco's PBS (phosphate buffered saline) prior to the addition of 3 ml aliquots of experimental MEM containing 25% (v/v) D2 O, 9% (v/v) dilapidated FBS, 1% FBS (v/v), 1% MEM vitamins and L-glutamine, and 2% of essential and non-essential amino acids and 20 mM HEPES buffer.
as §1
LDL (d, 1.019-1.03) was isolated by sequential preparative ultracentrifugation of normal human plasma, using solid KBr for density adjustment, according to the methods of Havel et al., J. Clin. Invest., 34: 1345-1353 (1955) and Radding & Steinberg, J Clin. Invest., 39: 1560-1569 (1960). The isolated LDL was then iodinated with ^125 INa by the monochloride procedure of McFarlane, Nature, 102: 53 (1958), as modified for lipoproteins according to Bilheimer et al., Biochim. Biophys. Acta. 260: 212-221 (1972). To remove free iodine, the LDL preparation was subjected to column chromatography on a Sephadex G-25M disposable mini-column (Pharmacia PD-10) and was dialized against 0.15 M NaCl and […] EDTA, pH 7.4. The specific activity of all LDL preparations ranged between 160-300 cpm/mg of LDL proteins. ^125 I-LDL was stored at 4° C. and was sterilized by filtration through a 0.45 um membrane just prior to incubation with the treated fibroblast and hepatoblastoma cell cultures and control cultures.
For binding studies, a fixed concentration of 10 ug/ml of ^125 I-LDL was added directly to the monolayers of the confluent culture medium (at or near the 96th hour) and incubation was continued for a further 4 hours at 37° C. for fibroblasts and 4° C. for HepG2 cells. After this incubation, the culture dishes were placed on ice, the medium was removed, and the cell monolayers were washed as described in Goldstein & Brown, J. Biol. Chem., 249: 5153-5162 (1974). The monolayers were then scraped off the dishes with a teflon policeman and were solubilized with 1 ml of 0.1 N NaOH.
Cell-associated radioactivity was measured in a Packard auto gamma scintillation spectrometer Model 5160, and cell protein was measured by the method of Lowry et al., J. Biol. Chem., 193: 265-275 (1951), using bovine serum albumin as a standard. Total ^125 I-LDL binding was expressed as the mass of ^125 I-LDL (mg) per mg of cell protein.
as §2

Compound	TOTAL CHOLESTEROL (HepG2 Cells; 0.156 uM)	TOTAL CHOLESTEROL (HepG2 Cells; 0.312 uM)	TOTAL CHOLESTEROL (HepG2 Cells; 0.625 uM)	125I-LDL BINDING ([1]; 0.156 uM, human fibroblasts)	125I-LDL BINDING ([1]; 0.312 uM, human fibroblasts)	125I-LDL BINDING ([1]; 0.625 uM, human fibroblasts)	LDL-binding (in words) [1]	potency in comparison (in words) ([1]; human fibroblasts, versus 26-hydroxycholesterol)	TOTAL CHOLESTEROL (HepG2 Cells; 5.0 uM)	TOTAL CHOLESTEROL (HepG2 Cells; 10.0 uM)	TOTAL CHOLESTEROL (HepG2 Cells; 20.0 uM)	125I-LDL BINDING ([1]; 5.0 uM, human fibroblasts)	125I-LDL BINDING ([1]; 10.0 uM, human fibroblasts)	125I-LDL BINDING ([1]; 20.0 uM, human fibroblasts)
C[C@@H](CN)CCC[C@@H](C)[C@H]1CC[C@H]2[C@@H]3CC=C4C[C@@H](O)CC[C@]4(C)[C@H]3CC[C@]12C [26-NH2, 26-aminocholesterol]	30.6 +/- 3.7 ug cholesterol per mg cell pro	25.0 +/- 0.6 ug cholesterol per mg cell pro	28.8 +/- 1.8 ug cholesterol per mg cell pro	29.6 +/- 1.1 ug LDL protein per mg cell pro	22.6 +/- 5.4 ug LDL protein per mg cell pro	13.3 +/- 1.6 ug LDL protein per mg cell pro	significant reductions; also recorded: downregulates LDL binding; also recorded: selectively inhibits and reduces LDL binding	significantly more potent						
CC(CO)CCC[C@@H](C)[C@H]1CC[C@H]2[C@@H]3CC=C4C[C@@H](O)CC[C@]4(C)[C@H]3CC[C@]12C (stereo partly drawn) [26-OH, 26-hydroxycholesterol]			24.7 +/- 2.8 ug cholesterol per mg cell pro			22.0 +/- 2.4 ug LDL protein per mg cell pro	significant reductions							
CC(CS)CCC[C@@H](C)[C@H]1CC[C@H]2[C@@H]3CC=C4C[C@@H](O)CC[C@]4(C)[C@H]3CC[C@]12C (stereo partly drawn) [26-SH]							no impact		25.5 +/- 4.3 ug cholesterol per mg cell pro	27.4 +/- 4.0 ug cholesterol per mg cell pro	23.2 +/- 1.2 ug cholesterol per mg cell pro	37.9 +/- 1.8 ug LDL protein per mg cell pro	25.7 +/- 0.7 ug LDL protein per mg cell pro	35.7 +/- 4.8 ug LDL protein per mg cell pro
